Results on four molecules are retold here after ChEMBL document CHEMBL1201862, “PubChem BioAssay data set” (2004).

Molecules are shown by their SMILES. Calls of active or inactive are those of the source.

Common to all, as to format: functional
The target of one assay is Activin receptor type-1 (Homo sapiens, UniProt Q04771). Description: Navigating the Kinome. Panel member name: ACVR1.
For assay [1], the target named is Dual specificity protein kinase CLK4 (Homo sapiens, UniProt Q9HAZ1).
For assay [2], the target named is Dual specificity tyrosine-phosphorylation-regulated kinase 1A (Homo sapiens, UniProt Q13627).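 Also: measured against DYRK1A as one member of a broad kinome profiling panel.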
In assay [3] the target is Serine/threonine-protein kinase Nek2 (Homo sapiens, UniProt P51955).
In assay [4] the target is Dual specificity tyrosine-phosphorylation-regulated kinase 1B (Homo sapiens, UniProt Q9Y463). Put plainly: Navigating the Kinome. Panel member name: DYRK1B.
For assay [5], the target named is Cyclin-dependent kinase 5 (Homo sapiens, UniProt Q00535).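 Also: CDK5 measured as one member of a kinase profiling panel.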
Assay [6] concerns the target Platelet-derived growth factor receptor alpha (Homo sapiens, UniProt P16234). Put plainly: Navigating the Kinome. Panel member name: PDGFRA.
The target in assay [7] is Leucine-rich repeat serine/threonine-protein kinase 2 (Homo sapiens, UniProt Q5S007).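 Also: value from a broad kinome-wide panel profiling study in which LRRK2 was one of the kinases tested.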
The target of assay [8] is T1, Serine/threonine-protein kinase Chk1 (Homo sapiens, UniProt O14757).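 Also: measured as one member of a kinome-wide kinase profiling panel.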
T1 sequence (O14757 whole entry): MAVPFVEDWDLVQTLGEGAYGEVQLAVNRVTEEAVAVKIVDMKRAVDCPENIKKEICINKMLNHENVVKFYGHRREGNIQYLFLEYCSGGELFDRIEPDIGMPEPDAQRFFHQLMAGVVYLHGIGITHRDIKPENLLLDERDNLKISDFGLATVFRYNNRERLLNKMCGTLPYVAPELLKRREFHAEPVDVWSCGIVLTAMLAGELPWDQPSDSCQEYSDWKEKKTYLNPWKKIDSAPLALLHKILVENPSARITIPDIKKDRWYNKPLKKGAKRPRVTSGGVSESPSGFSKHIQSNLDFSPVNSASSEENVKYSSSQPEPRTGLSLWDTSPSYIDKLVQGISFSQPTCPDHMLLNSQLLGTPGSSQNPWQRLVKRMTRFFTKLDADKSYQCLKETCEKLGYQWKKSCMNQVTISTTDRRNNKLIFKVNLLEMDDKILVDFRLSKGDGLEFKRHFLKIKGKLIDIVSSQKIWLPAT

In assay [9] the target is MAP kinase-activated protein kinase 3 (Homo sapiens, UniProt Q16644).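 Also: value comes from a kinome-wide profiling panel in which MAPKAPK3 is one of the panel members.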
The target in assay [10] is Serine/threonine-protein kinase D2 (Homo sapiens, UniProt Q9BZL6).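 Also: measured against PRKD2 as one member of a kinome-wide kinase profiling panel.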
Assay [11] addresses G protein-coupled receptor kinase 5 (Homo sapiens, UniProt P34947). Put plainly: Navigating the Kinome. Panel member name: GPRK5.
Assay [12] concerns the target Protein kinase C gamma type (Homo sapiens, UniProt P05129).
The target of assay [13] is Mitogen-activated protein kinase kinase kinase 10 (Homo sapiens, UniProt Q02779). Put plainly: Navigating the Kinome. Panel member name: MAP3K10.

Sequence of Dual specificity protein kinase CLK4 (Q9HAZ1 whole entry): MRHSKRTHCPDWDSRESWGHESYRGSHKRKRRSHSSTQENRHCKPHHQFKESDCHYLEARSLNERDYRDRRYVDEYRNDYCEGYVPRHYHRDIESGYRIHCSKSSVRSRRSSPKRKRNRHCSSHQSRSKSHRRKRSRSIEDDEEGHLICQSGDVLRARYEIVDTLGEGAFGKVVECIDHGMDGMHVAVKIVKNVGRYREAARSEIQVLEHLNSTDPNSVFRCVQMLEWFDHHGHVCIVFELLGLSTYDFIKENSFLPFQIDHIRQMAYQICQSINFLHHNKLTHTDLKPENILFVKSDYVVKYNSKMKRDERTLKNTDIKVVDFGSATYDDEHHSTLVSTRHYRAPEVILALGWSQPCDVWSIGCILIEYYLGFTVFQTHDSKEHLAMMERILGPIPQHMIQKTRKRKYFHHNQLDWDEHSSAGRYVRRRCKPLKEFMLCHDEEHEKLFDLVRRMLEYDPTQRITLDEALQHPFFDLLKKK
Sequence of Serine/threonine-protein kinase Nek2 (P51955 whole entry): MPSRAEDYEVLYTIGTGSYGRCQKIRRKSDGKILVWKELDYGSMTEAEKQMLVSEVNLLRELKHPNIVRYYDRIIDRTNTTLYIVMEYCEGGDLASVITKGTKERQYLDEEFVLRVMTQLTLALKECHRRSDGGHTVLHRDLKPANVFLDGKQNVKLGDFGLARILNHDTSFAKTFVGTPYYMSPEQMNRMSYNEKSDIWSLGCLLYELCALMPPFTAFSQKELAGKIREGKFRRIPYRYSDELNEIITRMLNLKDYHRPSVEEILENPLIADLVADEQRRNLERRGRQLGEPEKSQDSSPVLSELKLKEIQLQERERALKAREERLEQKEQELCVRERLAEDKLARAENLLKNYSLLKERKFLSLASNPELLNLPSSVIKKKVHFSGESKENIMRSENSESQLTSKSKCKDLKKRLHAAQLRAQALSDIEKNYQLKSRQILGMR
Sequence of Cyclin-dependent kinase 5 (Q00535 whole entry): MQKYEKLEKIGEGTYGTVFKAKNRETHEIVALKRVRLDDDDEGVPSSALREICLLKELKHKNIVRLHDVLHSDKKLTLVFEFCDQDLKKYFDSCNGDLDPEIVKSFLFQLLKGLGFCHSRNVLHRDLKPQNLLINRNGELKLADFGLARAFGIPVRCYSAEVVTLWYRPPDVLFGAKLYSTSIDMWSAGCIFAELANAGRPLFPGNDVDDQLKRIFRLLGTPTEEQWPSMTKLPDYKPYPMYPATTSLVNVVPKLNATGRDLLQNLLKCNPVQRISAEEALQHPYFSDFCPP
Sequence of Leucine-rich repeat serine/threonine-protein kinase 2 (Q5S007 whole entry): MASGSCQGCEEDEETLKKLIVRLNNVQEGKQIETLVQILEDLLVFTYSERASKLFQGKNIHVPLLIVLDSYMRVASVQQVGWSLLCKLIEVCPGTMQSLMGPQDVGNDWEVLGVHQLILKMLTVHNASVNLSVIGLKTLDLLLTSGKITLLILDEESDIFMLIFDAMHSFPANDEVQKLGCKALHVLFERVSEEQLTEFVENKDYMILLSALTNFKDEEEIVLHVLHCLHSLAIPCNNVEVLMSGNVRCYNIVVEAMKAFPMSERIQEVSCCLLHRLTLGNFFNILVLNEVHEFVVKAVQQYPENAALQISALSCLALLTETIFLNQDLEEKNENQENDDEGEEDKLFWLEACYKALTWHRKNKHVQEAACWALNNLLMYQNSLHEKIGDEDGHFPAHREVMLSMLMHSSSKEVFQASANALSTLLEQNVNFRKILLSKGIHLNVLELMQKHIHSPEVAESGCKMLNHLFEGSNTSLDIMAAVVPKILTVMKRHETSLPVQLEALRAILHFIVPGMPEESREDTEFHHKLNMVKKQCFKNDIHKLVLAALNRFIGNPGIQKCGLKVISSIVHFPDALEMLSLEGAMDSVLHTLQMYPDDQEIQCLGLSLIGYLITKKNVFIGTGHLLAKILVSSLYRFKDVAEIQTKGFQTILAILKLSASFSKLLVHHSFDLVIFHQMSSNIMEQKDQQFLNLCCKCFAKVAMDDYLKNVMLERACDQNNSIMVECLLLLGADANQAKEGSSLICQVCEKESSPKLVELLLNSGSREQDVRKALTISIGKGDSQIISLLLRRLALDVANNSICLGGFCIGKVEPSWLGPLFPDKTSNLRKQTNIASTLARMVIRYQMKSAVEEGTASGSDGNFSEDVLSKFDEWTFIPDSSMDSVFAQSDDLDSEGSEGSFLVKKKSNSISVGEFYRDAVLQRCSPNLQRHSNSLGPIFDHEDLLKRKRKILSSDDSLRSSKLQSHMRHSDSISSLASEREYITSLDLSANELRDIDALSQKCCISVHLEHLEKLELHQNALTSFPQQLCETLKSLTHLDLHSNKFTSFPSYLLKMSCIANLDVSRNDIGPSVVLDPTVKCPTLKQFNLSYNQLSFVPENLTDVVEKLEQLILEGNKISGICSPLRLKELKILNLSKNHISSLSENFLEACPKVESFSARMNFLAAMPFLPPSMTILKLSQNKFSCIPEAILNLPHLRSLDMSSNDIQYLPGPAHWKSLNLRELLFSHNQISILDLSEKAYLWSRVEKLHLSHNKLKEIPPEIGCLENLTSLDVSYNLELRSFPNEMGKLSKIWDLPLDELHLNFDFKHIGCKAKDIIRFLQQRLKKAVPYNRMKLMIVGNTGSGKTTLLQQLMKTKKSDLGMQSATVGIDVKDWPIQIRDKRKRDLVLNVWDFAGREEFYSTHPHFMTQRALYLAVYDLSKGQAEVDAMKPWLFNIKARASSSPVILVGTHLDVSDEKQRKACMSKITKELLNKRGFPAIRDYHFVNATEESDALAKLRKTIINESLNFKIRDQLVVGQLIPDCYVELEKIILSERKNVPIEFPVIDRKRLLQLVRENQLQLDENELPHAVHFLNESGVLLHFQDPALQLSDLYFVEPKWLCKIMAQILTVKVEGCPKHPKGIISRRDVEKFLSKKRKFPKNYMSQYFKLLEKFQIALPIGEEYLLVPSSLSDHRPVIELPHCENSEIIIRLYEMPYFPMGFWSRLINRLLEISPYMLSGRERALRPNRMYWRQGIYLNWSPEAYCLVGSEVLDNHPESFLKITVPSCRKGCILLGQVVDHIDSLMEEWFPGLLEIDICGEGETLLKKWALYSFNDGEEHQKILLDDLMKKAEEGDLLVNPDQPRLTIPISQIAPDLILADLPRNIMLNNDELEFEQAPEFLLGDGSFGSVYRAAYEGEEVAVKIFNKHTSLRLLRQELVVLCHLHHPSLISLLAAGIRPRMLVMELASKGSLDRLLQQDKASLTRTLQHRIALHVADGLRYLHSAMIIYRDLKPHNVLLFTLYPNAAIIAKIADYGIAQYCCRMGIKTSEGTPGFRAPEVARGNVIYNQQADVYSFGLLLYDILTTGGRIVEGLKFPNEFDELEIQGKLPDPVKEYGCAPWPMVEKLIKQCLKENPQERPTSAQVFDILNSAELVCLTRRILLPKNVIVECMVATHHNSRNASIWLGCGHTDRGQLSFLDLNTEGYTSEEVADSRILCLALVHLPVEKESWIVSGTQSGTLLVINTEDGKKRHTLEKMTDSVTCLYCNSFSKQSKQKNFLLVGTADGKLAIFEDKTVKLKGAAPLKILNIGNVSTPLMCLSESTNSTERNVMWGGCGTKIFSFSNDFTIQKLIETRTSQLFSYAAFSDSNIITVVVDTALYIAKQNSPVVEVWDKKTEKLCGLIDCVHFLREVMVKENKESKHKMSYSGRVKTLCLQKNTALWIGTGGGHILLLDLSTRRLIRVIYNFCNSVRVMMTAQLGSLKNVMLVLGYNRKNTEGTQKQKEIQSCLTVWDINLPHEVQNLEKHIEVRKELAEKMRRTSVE
Sequence of Serine/threonine-protein kinase D2 (Q9BZL6 whole entry): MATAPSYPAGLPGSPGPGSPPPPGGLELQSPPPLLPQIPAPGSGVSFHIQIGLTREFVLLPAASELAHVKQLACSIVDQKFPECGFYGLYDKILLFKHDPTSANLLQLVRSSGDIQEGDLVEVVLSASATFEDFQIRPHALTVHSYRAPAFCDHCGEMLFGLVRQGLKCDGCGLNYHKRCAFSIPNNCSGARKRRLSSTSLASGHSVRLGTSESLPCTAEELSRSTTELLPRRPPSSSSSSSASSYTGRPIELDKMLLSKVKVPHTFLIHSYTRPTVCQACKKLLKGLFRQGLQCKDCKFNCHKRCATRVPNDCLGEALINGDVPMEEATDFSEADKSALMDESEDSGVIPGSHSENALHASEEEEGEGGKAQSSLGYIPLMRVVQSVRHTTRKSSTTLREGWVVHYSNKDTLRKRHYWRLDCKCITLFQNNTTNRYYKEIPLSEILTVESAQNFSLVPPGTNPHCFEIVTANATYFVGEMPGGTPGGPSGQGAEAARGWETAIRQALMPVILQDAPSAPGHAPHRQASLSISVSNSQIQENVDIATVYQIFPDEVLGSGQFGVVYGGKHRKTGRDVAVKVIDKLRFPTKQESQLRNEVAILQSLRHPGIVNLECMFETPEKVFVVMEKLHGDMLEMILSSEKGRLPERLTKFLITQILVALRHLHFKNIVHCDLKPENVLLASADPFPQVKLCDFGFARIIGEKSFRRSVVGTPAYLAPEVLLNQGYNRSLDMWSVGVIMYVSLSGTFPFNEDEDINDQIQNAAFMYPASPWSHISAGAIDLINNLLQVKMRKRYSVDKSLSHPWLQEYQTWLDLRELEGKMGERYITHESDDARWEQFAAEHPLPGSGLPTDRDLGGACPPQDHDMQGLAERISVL
Sequence of MAP kinase-activated protein kinase 3 (Q16644 whole entry): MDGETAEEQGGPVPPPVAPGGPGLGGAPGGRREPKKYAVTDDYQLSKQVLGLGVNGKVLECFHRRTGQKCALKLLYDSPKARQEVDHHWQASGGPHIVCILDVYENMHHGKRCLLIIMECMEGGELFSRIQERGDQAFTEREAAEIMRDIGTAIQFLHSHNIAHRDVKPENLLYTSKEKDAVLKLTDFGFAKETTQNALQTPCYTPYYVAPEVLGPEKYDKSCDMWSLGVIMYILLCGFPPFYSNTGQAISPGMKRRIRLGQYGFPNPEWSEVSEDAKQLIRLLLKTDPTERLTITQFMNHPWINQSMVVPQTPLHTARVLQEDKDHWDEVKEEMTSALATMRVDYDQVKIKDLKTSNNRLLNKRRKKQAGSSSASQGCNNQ

For orientation: Ki means a measure of affinity in units of concentration, obtained from inhibition or displacement. For the molecule `O=C(Nc1cccc(C(F)(F)F)n1)Nc1ccnc2cc(F)ccc12`, the Ki on Activin receptor type-1 was 1.26 µM (active); in [1], 2.51 µM (active).

With `Cc1cc2c(c(C#N)c1C)OC1(CCCCC1)C(N)C2=O` (stereo unspecified), the values for the Ki in assay [2] and in assay [3] were 1.58 µM (active) and 5.01 µM (active), respectively.

With `Nc1nnc2sc3ccccc3n12`, the Ki is 63.1 µM (active) in assay [4]; 39.8 µM (active) in assay [5]; 63.1 µM (active) in assay [6]; 39.8 µM (active) in [2]; 79.4 µM (active) in assay [7]; 39.8 µM (active) in assay [8]. Besides, in assay [1], the inhibition constant Ki was 31.6 µM (active).

`O=C(O)c1ccc(Nc2ncc3c(n2)-c2ccc(Cl)cc2C(c2c(F)cccc2F)=NC3)cc1` [MLN-8054]: the Ki in assay [9] was > 10 µM (inactive); in assay [10], > 10 µM (inactive); in assay [11], 1 µM (active); in [12], > 7.94 µM (inactive); in assay [13] it was > 3.16 µM (inactive).
